From patent US20220175798A1, “COMPOSITIONS COMPRISING OXYGENATED CHOLESTEROL SULFATE AND AT LEAST ONE OF POLYALKYLENE GLYCOL, CARBOXYMETHYL CELLULOSE AND POLYOXYLGLYCERIDE” (Durect Corporation, priority 2016, published 2022)
Where “and” joins values, the source holds several entries; their conditions need not be identical. Equal entries are not always repeated.

Assay: Particle size analysis by Malvern Mastersizer 2000 (laser diffraction)
Assay type: physicochemical
Experimental: Two lots of 25HC3S sodium salt (Lot #A and Lot #B) were first passed through either 20 mesh or 35 mesh stainless steel sieves for particle size analysis. The particle sizes were further reduced by jet milling and analyzed again. All particle size analyses were determined using a Malvern Mastersizer 2000.
Fluid Energy Model 00 Jet-O-Mizer was used for all jet-milling. Malvern Mastersizer 2000 equipped with a Hydro 2000S dispersion cell was used for particle size analysis.
Approximately 60 mg of API was weighed into a 4 mL screw cap vial and 1 mL water, USP was added to the vial. […] Duplicate samples from each single sample preparation were analyzed.
Particle refractive index was assumed to be 1.53 (not measured by refractometer) and particle absorption index was 0.01. Dispersant (water, USP, presaturated with 25HC3 S) refractive index was 1.33. […] Throughout the measurement, the pump rate was 3000 rpm without sonication. The measurement integration time was 20,000 ms; the numbers of measurements for each sample were 5 with a 20 seconds delay in between two measurements. Analysis model: General purpose

[1] = 20 mesh sieve then Jet milling 1st pass (1st milling sample, feed rate not controlled), sodium salt
[2] = 20 mesh sieve then Jet milling 2nd pass, sodium salt
[3] = 20 mesh sieve then Jet milling 3rd pass, sodium salt
[4] = Press through 20 mesh sieve with a stainless steel spatula, sodium salt
[5] = Press through 35 mesh sieve with a stainless steel spatula
[6] = 20 mesh sieve then Jet milling 1st pass (2nd milling sample, feed rate 1 g/min)

| SMILES | d (0.1) [1] | d (0.5) [1] | d (0.9) [1] | d (0.1) [2] | d (0.5) [2] | d (0.9) [2] | d (0.1) [3] | d (0.5) [3] | d (0.9) [3] | d (0.1) [4] | d (0.5) [4] | d (0.9) [4] | other results |
| --- | --- | --- | --- | --- | --- | --- | --- | --- | --- | --- | --- | --- | --- |
| C[C@H](CCCC(C)(C)O)[C@H]1CC[C@H]2[C@@H]3CC=C4C[C@@H](OS(=O)(=O)[O-])CC[C@]4(C)[C@H]3CC[C@]12C.[Na+] [Lot# A, 25HC3S sodium salt] | 0.705 μm | 2.091 μm | 5.180 μm | 0.384 μm and 0.496 μm | 1.214 μm and 1.320 μm | 4.026 μm and 4.035 μm | 0.137 μm and 0.120 μm | 0.664 μm and 0.580 μm | 2.896 μm and 2.755 μm | 2.268 μm and 2.474 μm | 6.324 μm and 6.905 μm | 18.712 μm and 20.290 μm | d (0.9) (20 mesh sieve then Jet milling 1st pass (1st milling sample, feed rate not controlled), listed as Lot #A, sodium salt): 5.180 μm; d (0.9) (20 mesh sieve then Jet milling 3rd pass, listed as Lot #A, sodium salt): 2.755 μm; d (0.1) [5]: 2.536 μm; d (0.5) [5]: 7.147 μm; d (0.9) [5]: 22.195 μm |
| C[C@H](CCCC(C)(C)O)[C@H]1CC[C@H]2[C@@H]3CC=C4C[C@@H](OS(=O)(=O)[O-])CC[C@]4(C)[C@H]3CC[C@]12C.[Na+] [Lot# B, 25HC3S sodium salt] | 2.148 μm and 1.822 μm | 6.858 μm and 5.126 μm | 29.028 μm and 22.070 μm | 1.431 μm and 1.109 μm | 4.192 μm and 3.920 μm | 15.878 μm and 13.196^4 μm | 0.976 μm and 0.651 μm | 4.251 μm and 2.329 μm | 16.17 μm | 4.132 μm and 4.947 μm | 15.439 μm and 21.437 μm | 43.740 μm and 68.250 μm | d (0.9) (20 mesh sieve then Jet milling 1st pass (1st milling sample, feed rate not controlled), listed as Lot #B, sodium salt): 22.07 μm and 16.17 μm; d (0.1) [6]: 1.253 μm; d (0.5) [6]: 3.172 μm; d (0.9) (20 mesh sieve then Jet milling 1st pass (2nd milling sample, feed rate 1 g/min), listed as Lot #B, sodium salt): 9.09 μm; d (0.9) (20 mesh sieve then Jet milling 1st pass (2nd milling sample, feed rate 1 g/min), sodium salt): 9.090 μm |
